Common to all, as to format: in vivo, human
Experiment [1] has as its system consumer panel (company employees). Nature of the experiment: Sweetness perception threshold in neutral water (2-AFC). The following applies: n = 30. The text has this: Therefore we selected 50 ppm of PCS-3028 as the recognition threshold concentration. [table] This is a re-evaluation of the recognition threshold concentration to follow methodology outlined in section 1.4.2 of the “Guidance for the Sensory Testing of Flavorings with Modifying Properties within the FEMA GRAS™ Program”.

For experiment [2] the test system is unchanged. Nature of the experiment: Sweetness perception threshold in lemon poppy seed muffin (2-AFC). The following applies: n = 30. The text has this: Additional threshold test data found for Lemon Poppy Seed Muffin provided in Appendix. [table] [table]
Experiment [3] shares this test system. The experiment can be described thus: Sweetness perception threshold in puffed corn breakfast cereal (2-AFC). As for the experimental part:
[…] As recommended by the FEMA Sensory guidance document,—Guidance for the Sensory Testing of Flavorings with Modifying Properties, within the FEMA GRAS™ Program, 2013—the recognition threshold concentration was determined using 2-alternateve forced choice (2-AFC) methodology.
This is an evaluation of the recognition threshold concentration to follow methodology outlined in section 1.4.2 of the “Guidance for the Sensory Testing of Flavorings with Modifying Properties within the FEMA GRAS™ Program”.
Sample Preparation: The puffed corn cereal (with no added sugar or flavor) purchased from local stores and sprayed with aqueous sucrose solutions using a portable atomizer to create a fine mist while tumbling the dry cereal grains. All the samples were dried to remove the added water from the samples. About 3 g of cereal was portioned into appropriately labeled blind-coded plastic 2 oz soufflé cup with lids. Samples were served dry to all panelists.

The mark [4] stands for this setting: 1.5% sucrose vs 30 ppm PCS-3028 in water.
[5] abbreviates: 1.5% sucrose vs 50 ppm PCS-3028 in water.
Where [6] appears, read: 1.5% sucrose vs 70 ppm PCS-3028 in water.
Setting [7] is: 4% sugar vs 70 ppm PCS3028 in muffins.
[8] abbreviates: 4% sugar vs 150 ppm PCS3028 in muffins.
Setting [9] is: 4% sugar vs 250 ppm PCS3028 in muffins.
Setting [10] is: Puffed Corn Cereal + vs + 250 ppm PCS-3028, n = 30.

As to `OC[C@H]1O[C@@](CO)(O[C@H]2O[C@H](CO)[C@@H](O)[C@H](O)[C@H]2O)[C@@H](O)[C@@H]1O` [Sucrose], the “% Frequency (sample named as sweeter)” value was 96.7% in experiment [1] (setting [4]); 10% in experiment [1] (setting [6]); 93.3% in experiment [3] (Puffed Corn Cereal + vs + 150 ppm PCS-3028, n = 30, listed as Sugar); 43.3% in experiment [3] (setting [10]). The “PC (panelists naming the sample as sweeter)” value in experiment [1] (setting [4]) came to 29; in experiment [1] (setting [5]), 21; in experiment [1] (setting [6]) it was 3; in experiment [2] (setting [7]) it was 23; in experiment [2] (setting [8]), 21; in experiment [2] (setting [9]), 10. Also, the “PC (panelists naming the sample as sweeter)” value in experiment [3] (Puffed Corn Cereal + vs + 150 ppm PCS-3028, n = 30) is on record as 28; in experiment [3] (setting [10]) it was 13. In addition, the “Percent Frequency (sample named as sweeter)” value in experiment [1] (setting [5]) is reported as 70.0%. Besides, the “Frequency (sample named as sweeter)” value turned out to be 76.7% in experiment [2] (setting [7]), 70% in experiment [2] (setting [8]) and 33.3% in experiment [2] (setting [9]).
